In patent US8884061B2, “Compositions and methods of use of electron transport system inhibitors” (priority 2006, dated 2014):
In brackets after ≈: the same amount, converted by molar mass.

How the values were obtained:
[1] = system: M. tuberculosis H37Rv; assay: MIC, colorimetric microtiter plate method with Alamar blue; assay type: cell-based; settings: Mycobacterium tuberculosis, read-out: MIC (μg/mL) M. tuberculosis
Protocol: Activity Against M. Tuberculosis
The minimum inhibitory concentration (MIC) of compounds were determined against H37Rv by a colorimetric microtiter plate based method with Alamar blue.

[2] = target: MenA (Mycobacterium tuberculosis, UniProt P9WIP3); assay: In vitro assay against MenA (membrane fractions); assay type: biochemical; settings: membrane fractions from M. tuberculosis; 5 μM farnesyl diphosphate, 50 μM dihydroxynaphthoic acid, pH 8.5; read-out: IC50 (μmol) MenA
[3] = system: M. fortuitum NIHJ1615; assay: MIC, agar (7H11) dilution method; assay type: cell-based; settings: Mycolicibacterium fortuitum, read-out: Minimum inhibitory concentrations (MIC)
[4] = system: M. smegmatis Takeo; assay: MIC, agar (7H11) dilution method; assay type: cell-based; settings: Mycolicibacterium smegmatis, read-out: Minimum inhibitory concentrations (MIC)
[5] = system: M. tuberculosis Kurono; assay: MIC, agar (7H11) dilution method; assay type: cell-based; settings: Mycobacterium tuberculosis; M. tuberculosis Kurono; agar (7H11) dilution; read-out: Minimum inhibitory concentrations (MIC)
[6] = system: M. avium Flamingo; assay: MIC, agar (7H11) dilution method; assay type: cell-based; settings: Mycobacterium avium, read-out: Minimum inhibitory concentrations (MIC)
[7] = system: M. bovis BCG Tokyo; assay: microbe, parasite or virus in culture; assay type: cell-based; settings: Mycobacterium tuberculosis variant bovis BCG, BCG, read-out: Minimum inhibitory concentrations (MIC)
[8] = system: M. kansasii NIHJ1619; assay: MIC, agar (7H11) dilution method; assay type: cell-based; settings: Mycobacterium kansasii, read-out: Minimum inhibitory concentrations (MIC)
[9] = system: M. intracellularae ATCC 15984; assay: MIC, agar (7H11) dilution method; assay type: cell-based; settings: read-out: Minimum inhibitory concentrations (MIC)
[10] = system: M. tuberculosis H37Rv; assay: MIC, agar (7H11) dilution method; assay type: cell-based; settings: Mycobacterium tuberculosis, H37RV, M. tuberculosis H37Rv, read-out: Minimum inhibitory concentrations (MIC)
[11] = system: M. aurum; assay: MIC, agar (7H11) dilution method; assay type: cell-based; settings: Mycolicibacterium aurum, read-out: Minimum inhibitory concentrations (MIC)
[12] = table line r8 (2nd of 5 so labelled)
[13] = table line r9 (3rd of 5 so labelled)
[14] = table line r10 (4th of 5 so labelled)
[15] = table line r11 (5th of 5 so labelled)

MenA, sequence (P9WIP3 whole entry): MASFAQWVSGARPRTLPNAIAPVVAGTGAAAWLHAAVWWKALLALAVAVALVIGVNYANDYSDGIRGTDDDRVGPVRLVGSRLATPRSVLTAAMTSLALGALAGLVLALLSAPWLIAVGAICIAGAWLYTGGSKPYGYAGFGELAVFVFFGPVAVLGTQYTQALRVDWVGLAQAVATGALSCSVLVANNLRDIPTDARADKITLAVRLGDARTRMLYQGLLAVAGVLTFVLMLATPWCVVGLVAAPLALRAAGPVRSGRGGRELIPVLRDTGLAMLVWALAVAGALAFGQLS

SMILES	MIC [1]	IC50 [2]	also measured
C#CCN(C)CCCCCCCCOc1ccc(C(=O)c2ccc(Cl)cc2)c(Cl)c1 [Cpd 11, (2-Chloro-4-(8-(methyl(prop-2-ynyl)amino)octyloxy)phenyl)(4-chlorophenyl)methanone]	12 µg/mL (≈ 26.9 µM)	15 µM	–
NNC(=O)c1ccncc1 [INH, isoniazid, reference compound]	–	–	MIC [3]: 6.25 µg/mL (≈ 45.6 µM); MIC [4]: 12.5 µg/mL (≈ 91.1 µM); MIC [5]: 0.05 µg/mL (≈ 0.365 µM); MIC [6]: > 25 µg/mL; MIC [7]: 0.1 µg/mL (≈ 0.729 µM); MIC [8]: 12.5 µg/mL (≈ 91.1 µM); MIC [9]: 12.5 µg/mL (≈ 91.1 µM); MIC [10, 12]: 0.1 µg/mL (≈ 0.729 µM); MIC [10, 13]: > 25 µg/mL; MIC [10, 14]: 0.05 µg/mL (≈ 0.365 µM); MIC [10, 15]: 0.1 µg/mL (≈ 0.729 µM); MIC [11]: 6.25 µg/mL (≈ 45.6 µM)
C=CCN(C)CCCCCCCCOc1ccc(C(=O)c2ccc(Cl)cc2)cc1 [Cpd 5, (4-(8-(Allyl(methyl)amino)octyloxy)phenyl)(4-chlorophenyl)methanone]	0.3 µg/mL (≈ 0.725 µM)	5 µM	–
C=CCN(C)CCCCCCCOc1ccc(C(O)c2ccc(Br)cc2)cc1 (centres unmarked) [Cpd 3]	5 µg/mL (≈ 11.2 µM)	15 µM	–
C=CCN(C)CCCCCCCCOc1ccc(C(=O)c2ccc(Cl)cc2Cl)cc1 [Cpd 7, (4-(8-(Allyl(methyl)amino)octyloxy)phenyl)(2,4-dichlorophenyl)methanone]	4 µg/mL (≈ 8.92 µM)	10 µM	–
C=CCN(C)CCCCCCCCOc1ccc(C(O)c2ccc(Br)cc2)cc1 (centres unmarked) [Cpd 4]	7 µg/mL (≈ 15.2 µM)	12 µM	–
CO[C@H]1/C=C/O[C@@]2(C)Oc3c(C)c(O)c4c(O)c(c(/C=N/N5CCN(C)CC5)c(O)c4c3C2=O)NC(=O)/C(C)=C\C=C\[C@H](C)[C@H](O)[C@@H](C)[C@@H](O)[C@@H](C)[C@H](OC(C)=O)[C@@H]1C [RFP, Rifampicin, reference compound]	–	–	MIC [3]: > 25 µg/mL; MIC [4]: > 25 µg/mL; MIC [5]: 0.1 µg/mL (≈ 0.122 µM); MIC [6]: 3.13 µg/mL (≈ 3.8 µM); MIC [7]: 0.1 µg/mL (≈ 0.122 µM); MIC [8]: 3.13 µg/mL (≈ 3.8 µM); MIC [9]: 3.13 µg/mL (≈ 3.8 µM); MIC [10, 12]: 0.1 µg/mL (≈ 0.122 µM); MIC [10, 13]: 0.2 µg/mL (≈ 0.243 µM); MIC [10, 14]: > 25 µg/mL; MIC [10, 15]: 0.2 µg/mL (≈ 0.243 µM); MIC [11]: 0.78 µg/mL (≈ 0.948 µM)
C=CCN(C)CCCCCCCCOc1ccc(C(=O)c2ccc(Br)cc2)cc1 [Cpd 2]	4 µg/mL (≈ 8.73 µM)	10 µM	–
C=CCN(C)CCCCCCCCOc1ccc(C(O)c2ccc(Cl)cc2)cc1 (centres unmarked) [Cpd 6, (4-(8-(allyl(methyl)amino)octyloxy)phenyl)(4-chlorophenyl)methanol]	3 µg/mL (≈ 7.21 µM)	10 µM	–
CN(CCCCCCCCOc1ccc(C(=O)c2ccc(Cl)cc2)c(Cl)c1)Cc1ccccc1 [Cpd 12]	12 µg/mL (≈ 24.1 µM)	13 µM	–
C=CCN(C)CCCCCCCOc1ccc(C(=O)c2ccc(Br)cc2)cc1 [Cpd 1, (4-(7-(allyl(methyl)amino)heptyloxy)phenyl)(4-bromophenyl)methanone]	5 µg/mL (≈ 11.3 µM)	12 µM	–
C=CCN(C)CCCCCCCCOc1ccc(C(O)c2ccc(Cl)cc2Cl)cc1 (centres unmarked) [Cpd 8]	5 µg/mL (≈ 11.1 µM)	12 µM	–
C=CCN(C)CCCCCCCCOc1ccc(C(=O)c2ccc(Cl)cc2)c(Cl)c1 [Cpd 9]	0.6 µg/mL (≈ 1.34 µM)	4 µM	–
C=CCN(C)CCCCCCCCOc1ccc(C(O)c2ccc(Cl)cc2)c(Cl)c1 (centres unmarked) [Cpd 10, (4-(8-(allyl(methyl)amino)octyloxy)-2-chlorophenyl)(4-chlorophenyl)methanol]	0.6 µg/mL (≈ 1.33 µM)	< 2.5 µM	–
C=CCN(C)CCCCCCCCOc1ccc(C(=O)c2ccc(Cl)cc2)c(O)c1 [Cpd 13, (4-(8-(allyl(methyl)amino)octyloxy)-2-hydroxyphenyl)(4-chlorophenyl)methanone]	0.2 µg/mL (≈ 0.465 µM)	< 2.5 µM	–
